Calls of active or inactive are those of the source. Rule as the data show it, for most assays here: actives have a measured EC50 and inactives only a lower limit.
Key:
[1] = biological target: T1, Streptokinase A (Streptococcus pyogenes serotype M1, UniProt P10520); experiment: S. pyogenes streptokinase expression inhibitors, potency, dose response, plasminogen activation absorbance, OD405 (AID 1914); assay type: functional, Streptococcus pyogenes M1 GAS;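 also: secreted streptokinase activity via plasminogen activation per viability signal from cell pellet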
T1 sequence (P10520 whole entry): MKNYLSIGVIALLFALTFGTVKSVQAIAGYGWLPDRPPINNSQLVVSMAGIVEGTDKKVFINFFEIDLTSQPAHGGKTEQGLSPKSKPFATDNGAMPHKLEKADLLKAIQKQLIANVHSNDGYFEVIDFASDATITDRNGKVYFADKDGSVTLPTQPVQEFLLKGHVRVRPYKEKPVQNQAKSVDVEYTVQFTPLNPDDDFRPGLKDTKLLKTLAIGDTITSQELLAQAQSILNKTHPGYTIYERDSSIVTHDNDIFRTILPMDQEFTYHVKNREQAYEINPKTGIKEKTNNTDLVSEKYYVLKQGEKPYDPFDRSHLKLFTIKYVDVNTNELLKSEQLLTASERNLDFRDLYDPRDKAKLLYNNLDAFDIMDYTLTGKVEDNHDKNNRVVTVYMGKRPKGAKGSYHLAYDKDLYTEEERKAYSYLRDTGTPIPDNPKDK

[2] = tested on: Streptococcus sp. 'group A'; experiment: growth inhibition of control SK(-) GAS strain, dose response, counter-screen for streptokinase expression inhibitor project, luminescence, kanamycin, BacTiterGlo, confirmation (AID 1900); assay type: functional, organism-based
[3] = tested on: Streptococcus; experiment: Group A Streptococcus viability loss, dose response, counter-screen for streptokinase expression inhibitor project, luminescence, BacTiterGlo (AID 1915); assay type: functional, organism-based; conditions: read-out: EC50;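 also: potency for reduction of bacterial viability or growth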
[4] = biological target: T2, Corticotropin-releasing factor receptor 2/Corticotropin-releasing factor-binding protein (Homo sapiens, UniProt P24387+Q13324); experiment: activators of CRF receptor 2 with binding protein – uHTS hits, confirmation (AID 602473); assay type: functional; conditions: read-out: EC50_Mean
T2 sequence (Q13324 whole entry): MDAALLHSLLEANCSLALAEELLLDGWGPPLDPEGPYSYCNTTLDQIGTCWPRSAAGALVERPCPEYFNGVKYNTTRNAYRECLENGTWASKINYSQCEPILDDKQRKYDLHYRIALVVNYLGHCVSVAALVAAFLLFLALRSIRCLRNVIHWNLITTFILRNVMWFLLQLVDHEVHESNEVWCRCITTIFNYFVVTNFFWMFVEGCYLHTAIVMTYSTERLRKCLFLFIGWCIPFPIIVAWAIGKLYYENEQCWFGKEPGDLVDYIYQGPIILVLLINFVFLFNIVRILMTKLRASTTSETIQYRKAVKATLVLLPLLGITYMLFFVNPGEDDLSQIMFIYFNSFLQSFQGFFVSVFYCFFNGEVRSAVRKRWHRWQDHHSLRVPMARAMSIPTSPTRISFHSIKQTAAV
T2 sequence (P24387 whole entry): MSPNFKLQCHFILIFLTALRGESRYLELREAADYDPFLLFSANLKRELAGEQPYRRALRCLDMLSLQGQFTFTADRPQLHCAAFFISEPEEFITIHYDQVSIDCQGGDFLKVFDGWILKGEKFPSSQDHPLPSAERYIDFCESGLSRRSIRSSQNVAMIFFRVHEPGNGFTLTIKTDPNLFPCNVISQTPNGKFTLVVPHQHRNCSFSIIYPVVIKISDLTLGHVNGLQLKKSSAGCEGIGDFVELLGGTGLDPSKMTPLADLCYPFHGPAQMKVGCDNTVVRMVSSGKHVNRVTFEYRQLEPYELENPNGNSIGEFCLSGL

[5] = biological target: Cytochrome P450 2D6 (Homo sapiens, UniProt P10635);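 also: CYP2D6 member of a cytochrome P450 panel assay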
[6] = biological target: Cytochrome P450 3A4 (Homo sapiens, UniProt P08684);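 also: CYP3A4 tested as one member of a cytochrome P450 panel screen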
[7] = Luminescence Cell-Based Dose Retest to Confirm Inhibitors of Cancer Stem Cells. [Related pubchem assays (depositor defined):AID2717, AID2721]; assay type: functional; conditions: Homo sapiens
[8] = biological target: T3, Replicative DNA helicase DnaB (Mycobacterium tuberculosis, UniProt P9WMR3); experiment: DnaB intein splicing inhibitors, dose response, biochemical, cell-free fluorescence (AID 449749); assay type: functional
T3 sequence (P9WMR3 whole entry): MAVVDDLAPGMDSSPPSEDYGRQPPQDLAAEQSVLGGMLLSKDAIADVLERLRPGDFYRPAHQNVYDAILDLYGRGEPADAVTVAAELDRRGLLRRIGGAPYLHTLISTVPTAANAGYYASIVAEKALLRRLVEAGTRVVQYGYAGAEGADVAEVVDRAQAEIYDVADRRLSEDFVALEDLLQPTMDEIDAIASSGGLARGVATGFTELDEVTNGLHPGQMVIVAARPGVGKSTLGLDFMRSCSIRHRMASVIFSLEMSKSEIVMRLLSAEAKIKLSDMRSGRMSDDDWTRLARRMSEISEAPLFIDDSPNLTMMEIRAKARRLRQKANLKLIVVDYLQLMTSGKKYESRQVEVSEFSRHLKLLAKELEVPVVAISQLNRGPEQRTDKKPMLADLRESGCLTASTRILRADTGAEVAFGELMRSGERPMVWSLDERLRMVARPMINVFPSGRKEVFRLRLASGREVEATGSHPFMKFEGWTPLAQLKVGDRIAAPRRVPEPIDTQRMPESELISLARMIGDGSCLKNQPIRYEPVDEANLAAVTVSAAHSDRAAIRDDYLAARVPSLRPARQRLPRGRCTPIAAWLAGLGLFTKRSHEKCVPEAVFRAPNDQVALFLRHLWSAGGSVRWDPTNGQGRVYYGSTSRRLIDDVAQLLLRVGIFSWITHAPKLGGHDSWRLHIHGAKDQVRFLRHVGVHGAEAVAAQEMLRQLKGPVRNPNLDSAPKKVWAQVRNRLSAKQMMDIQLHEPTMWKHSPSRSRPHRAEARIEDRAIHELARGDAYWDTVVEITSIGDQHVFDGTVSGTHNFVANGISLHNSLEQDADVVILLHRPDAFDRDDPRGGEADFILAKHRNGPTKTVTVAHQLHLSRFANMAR

[9] = biological target: T4, Protein RecA (Mycobacterium tuberculosis, UniProt P9WHJ3); experiment: Fluorescence Cell-Free Homogeneous Dose Retest to Identify Inhibitors of RecA-Intein Splicing Activity. [Related pubchem assays (depositor defined):AID2097, AID2223, AID489010, AID492950]; assay type: functional
T4 sequence (P9WHJ3 whole entry): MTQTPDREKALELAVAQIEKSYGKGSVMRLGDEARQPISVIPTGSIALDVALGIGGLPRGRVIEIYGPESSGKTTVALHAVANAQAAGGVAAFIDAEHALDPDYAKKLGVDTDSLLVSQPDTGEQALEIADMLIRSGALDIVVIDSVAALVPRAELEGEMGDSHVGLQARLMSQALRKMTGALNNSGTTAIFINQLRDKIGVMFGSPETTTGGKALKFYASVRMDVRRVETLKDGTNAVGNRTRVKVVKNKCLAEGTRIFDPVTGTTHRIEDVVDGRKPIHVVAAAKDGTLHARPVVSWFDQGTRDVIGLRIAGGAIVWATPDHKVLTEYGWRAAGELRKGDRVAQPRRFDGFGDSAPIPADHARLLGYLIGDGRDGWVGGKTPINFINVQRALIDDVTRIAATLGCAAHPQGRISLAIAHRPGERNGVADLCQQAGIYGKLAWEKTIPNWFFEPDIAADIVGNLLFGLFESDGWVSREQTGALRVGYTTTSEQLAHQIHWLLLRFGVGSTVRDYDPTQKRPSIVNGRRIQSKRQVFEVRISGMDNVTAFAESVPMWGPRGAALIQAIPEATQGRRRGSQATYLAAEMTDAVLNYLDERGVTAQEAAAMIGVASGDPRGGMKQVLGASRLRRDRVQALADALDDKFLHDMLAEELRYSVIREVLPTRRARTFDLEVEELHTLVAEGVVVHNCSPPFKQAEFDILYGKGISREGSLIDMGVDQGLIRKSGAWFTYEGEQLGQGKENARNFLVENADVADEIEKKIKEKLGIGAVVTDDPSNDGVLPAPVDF

[10] = biological target: T5, Heat shock factor protein 1 (Mus musculus, UniProt P38532); experiment: inhibition of MG132-induced HSE-luciferase signal, confirmation, cell-based, NIH3T3, luminescence, dose retest (AID 2382); assay type: functional;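 also: NIH3T3 fibroblasts with HSF1-driven luciferase reporter stressed by proteasome inhibitor MG132; luminescence from HSF1-driven luciferase expression after 8 hours of MG132 stress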
T5 sequence (P38532 whole entry): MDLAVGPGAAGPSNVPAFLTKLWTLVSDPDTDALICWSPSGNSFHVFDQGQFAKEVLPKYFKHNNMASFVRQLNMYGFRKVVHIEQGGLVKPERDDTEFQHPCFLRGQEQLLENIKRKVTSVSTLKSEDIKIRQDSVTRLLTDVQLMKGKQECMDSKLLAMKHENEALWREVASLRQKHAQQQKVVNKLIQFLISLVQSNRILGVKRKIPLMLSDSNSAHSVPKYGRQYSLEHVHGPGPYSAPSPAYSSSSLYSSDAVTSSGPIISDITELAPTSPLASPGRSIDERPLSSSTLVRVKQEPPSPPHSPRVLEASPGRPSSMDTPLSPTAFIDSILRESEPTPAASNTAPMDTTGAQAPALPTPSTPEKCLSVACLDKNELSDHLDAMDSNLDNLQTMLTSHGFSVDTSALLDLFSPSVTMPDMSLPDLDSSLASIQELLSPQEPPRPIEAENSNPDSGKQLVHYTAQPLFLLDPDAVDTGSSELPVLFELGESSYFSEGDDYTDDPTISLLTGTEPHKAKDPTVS

[11] = Shn3 3'UTR reporter inhibitors, dose response, cell-based, Clone20 osteoblasts, firefly luciferase, cherry-picked (AID 624132); assay type: functional;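 also: firefly luciferase luminescence from reporter carrying the Shn3 3'UTR in osteoblasts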

Chain of Cytochrome P450 3A4 (P08684 whole entry): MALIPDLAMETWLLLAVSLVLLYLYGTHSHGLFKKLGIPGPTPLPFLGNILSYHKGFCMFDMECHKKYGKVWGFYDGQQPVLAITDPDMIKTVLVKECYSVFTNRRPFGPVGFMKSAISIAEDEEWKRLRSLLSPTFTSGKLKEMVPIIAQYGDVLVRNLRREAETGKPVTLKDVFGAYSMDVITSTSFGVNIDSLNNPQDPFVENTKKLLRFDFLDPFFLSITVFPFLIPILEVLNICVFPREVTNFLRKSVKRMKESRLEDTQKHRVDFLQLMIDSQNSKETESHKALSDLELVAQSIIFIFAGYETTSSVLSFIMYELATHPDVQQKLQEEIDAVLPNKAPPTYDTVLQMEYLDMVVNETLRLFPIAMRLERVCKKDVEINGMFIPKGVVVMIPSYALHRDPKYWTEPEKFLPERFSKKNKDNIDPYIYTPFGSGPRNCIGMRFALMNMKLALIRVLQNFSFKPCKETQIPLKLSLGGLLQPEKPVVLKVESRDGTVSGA
Chain of Cytochrome P450 2D6 (P10635 whole entry): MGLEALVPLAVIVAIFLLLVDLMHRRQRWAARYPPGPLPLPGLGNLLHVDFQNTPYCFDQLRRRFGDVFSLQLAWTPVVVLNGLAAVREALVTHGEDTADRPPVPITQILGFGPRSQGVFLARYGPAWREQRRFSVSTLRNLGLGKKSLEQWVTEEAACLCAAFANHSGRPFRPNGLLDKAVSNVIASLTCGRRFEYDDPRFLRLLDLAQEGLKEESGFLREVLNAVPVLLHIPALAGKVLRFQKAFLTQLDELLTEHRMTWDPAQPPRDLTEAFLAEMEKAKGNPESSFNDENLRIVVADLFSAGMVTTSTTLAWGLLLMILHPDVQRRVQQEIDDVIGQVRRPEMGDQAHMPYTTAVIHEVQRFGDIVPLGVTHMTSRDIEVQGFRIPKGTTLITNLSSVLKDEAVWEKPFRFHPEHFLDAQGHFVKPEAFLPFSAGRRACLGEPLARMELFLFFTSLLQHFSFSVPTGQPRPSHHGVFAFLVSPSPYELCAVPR

SMILES | EC50 [1] | EC50 [2] | EC50 [3] | AC50 [5] | further results
c1ccc(-c2oc3ncnc(NCCCn4ccnc4)c3c2-c2ccccc2)cc1 | > 150 µM (not active) | 23.4 µM (active) | > 150 µM (not active) |  | 
Cc1cccc(Cc2cnc(NC(=O)c3ccc(C)o3)s2)c1 | > 150 µM (not active) | 16.6 µM (active) | > 150 µM (not active) |  | 
O=C(/C=C/c1ccco1)NC(=S)Nc1ccc(N2CCOCC2)c(Cl)c1 | > 150 µM (not active) | 109 µM (active) | 54.4 µM (active) |  | 
CC(=O)c1c(C)c2c(n1CCN(C)C)CCCC2 |  |  |  |  | EC50 [4]: 2.74 µM (active)
CN1CCN(c2ncc3nc(-c4ccccc4)c(=O)n(CCc4ccccc4)c3n2)CC1 |  |  |  | 39.8 µM (inconclusive) | 
C[C@]1(CC(=O)O)O[C@H]2CCCCC[C@H]2O1.NCc1ccccc1 |  |  |  | 3.16 µM (inconclusive) | AC50 [6]: 0.251 µM (inconclusive)
Cc1cc(C)c(-c2cc(NC(=O)COC(=O)c3ccc(CO)cc3)n(-c3ccccc3)n2)cc1C | 48.4 µM (active) | 5.49 µM (active) | 32.4 µM (active) |  | 
Oc1nc(CN2CC=C(c3ccccc3)CC2)nc2scc(-c3ccccc3)c12 | > 150 µM (not active) | 7.76 µM (active) | 50.3 µM (active) |  | AC50 [7]: 2.56 µM (active)
CCN(CC)S(=O)(=O)c1ccc(NN=C(C#N)C#N)cc1 |  |  |  |  | AC50 [8]: 5.03 µM (active); EC50 [9]: 15 µM (active)
CCS(=O)(=O)c1ccc2oc(Nc3cc(C)cc(C)c3)nc2c1 |  |  |  | 25.1 µM (inconclusive) | AC50 [6]: 28.2 µM (inconclusive)
Cn1c(-[n+]2c(-c3ccccc3)cc(-c3ccccc3)cc2-c2ccccc2)nc2c([N+](=O)[O-])cccc21 |  |  |  |  | AC50 [8]: 15.3 µM (active); EC50 [9]: 15.3 µM (active)
O=C(C1CCC(=O)N1Cc1ccccc1Cl)N1CCN(c2cccc(Cl)c2)CC1 (centres undefined) |  |  |  | 14.1 µM (inconclusive) | AC50 [6]: 0.0355 µM (inconclusive)
O=C(Nc1ccc(Cl)c(Cl)c1)N1CC=C(c2ccccc2)CC1 | 11.9 µM (active) | 9.92 µM (active) | 21 µM (active) |  | 
CCOc1cc(C(c2c(C)n[nH]c2O)c2c(C)n[nH]c2O)cc(Br)c1OC |  |  |  |  | AC50 [8]: 0.417 µM (active); EC50 [10]: > 195 µM (not active); EC50 [9]: 0.231 µM (active)
Cc1cc(NC(=O)CC2CCCC2)n(-c2nc3ccccc3[nH]2)n1 | > 150 µM (not active) | 6.41 µM (active) | > 150 µM (not active) |  | 
Cn1c(=O)c(C(=O)COc2ccc(C#N)cc2)c(N)n(Cc2ccccc2)c1=O |  |  |  |  | EC50 [4]: 10.9 µM (active)
COC(=O)[C@@]1(Cc2ccc(OC)cc2)[C@H]2c3cc(C(=O)N(C)C)n(Cc4ccc(C)o4)c3C[C@H]2CN1C(=O)c1ccccc1 |  |  |  | 39.8 µM (inconclusive) | 
O=C(Nc1ccccc1)c1ccccc1NC(=O)C(F)(F)F |  |  |  |  | EC50 [4]: > 53 µM (inactive)
CN(C)C(=O)c1cn(N(C)c2ncc(C(F)(F)F)cc2Cl)c(=O)c2ccccc12 |  |  |  | 25.1 µM (inconclusive) | AC50 [6]: 10 µM (inconclusive)
Cc1onc(-c2ccccc2)c1C(=O)NCCc1c[nH]c2ccccc12 |  |  |  | 12.6 µM (inconclusive) | 
COc1ccc2cc(C(=O)NCc3ccccc3)/c(=N/c3ccc(C(=O)O)cc3)oc2c1 | > 150 µM (not active) | 10.2 µM (active) | 22.4 µM (active) |  | 
COc1ccc(C(=O)NNC(=O)c2cccc(S(=O)(=O)N3CCOCC3)c2)cc1 |  |  |  |  | AC50 [11]: 23.2 µM (active)
C[C@]12CC[C@@H](O)C[C@@H]1CC[C@@H]1[C@@H]2CC[C@]2(C)C(=O)CC[C@@H]12 [ANDROSTERONE] |  |  |  |  | AC50 [11]: 40.1 µM (active)
CNC(C)(C)Cc1ccccc1 [MEPHENTERMINE] |  |  |  | 10 µM (inconclusive) | 

— ChEMBL document CHEMBL1201862, “PubChem BioAssay data set” (2004)
